Measured values from PubChem BioAssay AID256 (DTP/NCI, 2004).
Where “and” joins values, the source holds several entries; their conditions need not be identical. Identical values can stand only once. Inconclusive results and toxic doses are left out.

Tested on: CD2F1 mice, L1210 leukemia ip, survival T/C
Test: NCI In Vivo Anticancer Drug Screen. Data for tumor model L1210 Leukemia (intraperitoneal) in CD2F1 (CDF1) mice
Conditions: higher = longer survival
Outline: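 Compound-dosed mice with transplantable tumor versus matched vehicle controls; endpoint ratio T/C reported.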

[1] = endpoint: mean survival time, dose: 25.0 mg/kg/injection, schedule: Q01DX005 (ip), vehicle: distilled water + Tween-80
[2] = endpoint: mean survival time, dose: 50.0 mg/kg/injection, schedule: Q01DX005 (ip), vehicle: distilled water + Tween-80
[3] = endpoint: mean survival time, dose: 100.0 mg/kg/injection, schedule: Q01DX005 (ip), vehicle: distilled water + Tween-80
[4] = endpoint: mean survival time, dose: 100.0 mg/kg/injection, schedule: Q04DX003 (ip), vehicle: saline with Tween-80
[5] = endpoint: mean survival time, dose: 200.0 mg/kg/injection, schedule: Q04DX003 (ip), vehicle: saline with Tween-80
[6] = endpoint: mean survival time, dose: 400.0 mg/kg/injection, schedule: Q04DX003 (ip), vehicle: saline with Tween-80
[7] = endpoint: mean survival time, dose: 100.0 mg/kg/injection, schedule: Q01DX001 (ip), vehicle: saline
[8] = endpoint: mean survival time, dose: 200.0 mg/kg/injection, schedule: Q01DX001 (ip), vehicle: saline
[9] = endpoint: mean survival time, dose: 400.0 mg/kg/injection, schedule: Q01DX001 (ip), vehicle: saline
[10] = endpoint: median survival time, dose: 12.5 mg/kg/injection, schedule: Q04DX003 (ip), vehicle: saline with Tween-80
[11] = endpoint: median survival time, dose: 25.0 mg/kg/injection, schedule: Q04DX003 (ip), vehicle: saline with Tween-80
[12] = endpoint: mean survival time, dose: 100.0 mg/kg/injection, schedule: Q01DX001 (ip), vehicle: saline with Tween-80
[13] = endpoint: mean survival time, dose: 200.0 mg/kg/injection, schedule: Q01DX001 (ip), vehicle: saline with Tween-80
[14] = endpoint: mean survival time, dose: 400.0 mg/kg/injection, schedule: Q01DX001 (ip), vehicle: saline with Tween-80
[15] = endpoint: mean survival time, dose: 100.0 mg/kg/injection, schedule: Q04DX002 (ip), vehicle: saline with Tween-80
[16] = endpoint: mean survival time, dose: 100.0 mg/kg/injection, schedule: Q01DX009 (ip), vehicle: saline with Tween-80
[17] = endpoint: mean survival time, dose: 200.0 mg/kg/injection, schedule: Q01DX009 (ip), vehicle: saline with Tween-80
[18] = endpoint: mean survival time, dose: 400.0 mg/kg/injection, schedule: Q01DX009 (ip), vehicle: saline with Tween-80
[19] = endpoint: mean survival time, dose: 5.0 mg/kg/injection, schedule: Q01DX009 (ip), vehicle: saline with Tween-80
[20] = endpoint: mean survival time, dose: 25.0 mg/kg/injection, schedule: Q01DX009 (ip), vehicle: saline with Tween-80
[21] = endpoint: mean survival time, dose: 50.0 mg/kg/injection, schedule: Q01DX009 (ip), vehicle: saline with Tween-80

Clc1nnc(Nc2ccccc2)c2ccccc12
T/C (endpoint: mean survival time, dose: 100.0 mg/kg/injection, schedule: Q04DX003 (ip), vehicle: other): 94 % of control | T/C (endpoint: mean survival time, dose: 200.0 mg/kg/injection, schedule: Q04DX003 (ip), vehicle: other): 88 % of control | T/C (endpoint: mean survival time, dose: 400.0 mg/kg/injection, schedule: Q04DX003 (ip), vehicle: other): 88 % of control

Nc1ncnc2c1c1c(=S)[nH]c(=O)[nH]c1n2C1OC(CO)C(O)C1O (stereo unspecified)
T/C [1]: 101 % of control | T/C [2]: 106 % of control | T/C [3]: 104 % of control

CCSCCCCO
T/C (endpoint: mean survival time, dose: 75.0 mg/kg/injection, schedule: Q04DX003 (ip), vehicle: saline): 97 % of control | T/C (endpoint: mean survival time, dose: 150.0 mg/kg/injection, schedule: Q04DX003 (ip), vehicle: saline): 103 % of control | T/C (endpoint: mean survival time, dose: 300.0 mg/kg/injection, schedule: Q04DX003 (ip), vehicle: saline): 98 % of control

COc1ccc2ccccc2c1/C=N/N1CCCCC1
T/C [4]: 102 % of control | T/C [5]: 102 % of control | T/C [6]: 96 % of control

COC(OC)C(OC(C)=O)C(OC(C)=O)C(COC(C)=O)OC(C)=O (stereo unspecified)
T/C [7]: 107 % of control | T/C [8]: 95 % of control | T/C [9]: 101 % of control

CC1CC([NH-])C([NH-])C(C)(C)C1.[Cl][Pt+2][Cl] (stereo unspecified)
T/C (endpoint: median survival time, dose: 10.0 mg/kg/injection, schedule: Q04DX003 (ip), vehicle: Klucel (hydroxypropylcellulose) (HPC)): 117 % of control | T/C (endpoint: median survival time, dose: 50.0 mg/kg/injection, schedule: Q04DX003 (ip), vehicle: Klucel + Tween-80): 153 % of control | T/C (endpoint: median survival time, dose: 100.0 mg/kg/injection, schedule: Q04DX003 (ip), vehicle: Klucel + Tween-80): 155 % of control

NC1CCCCC1N.O=S(=O)([O-])c1cccc(S(=O)(=O)[O-])c1.[Pt+4]
T/C (endpoint: median survival time, dose: 6.25 mg/kg/injection, schedule: Q04DX003 (ip), vehicle: saline with Tween-80): 166 % of control | T/C [10]: 237 % of control and 370 % of control | T/C [11]: 296 % of control and 325 % of control

C=CCCCCCCCCC(=O)N(CCOC)CCOC
T/C [4]: 93 % of control | T/C [5]: 94 % of control | T/C [6]: 98 % of control

CCCCCCCCSCC(CSCCCCCCCC)(CSCCCCCCCC)CSCCCCCCCC
T/C [12]: 101 % of control | T/C [13]: 93 % of control | T/C [14]: 93 % of control

COC(=O)CSc1n[nH]c(=O)[nH]c1=O
T/C (endpoint: mean survival time, dose: 12.5 mg/kg/injection, schedule: Q01DX005 (ip), vehicle: distilled water + Tween-80): 97 % of control | T/C [1]: 100 % of control | T/C [2]: 103 % of control | T/C [3]: 94 % of control | T/C (endpoint: mean survival time, dose: 200.0 mg/kg/injection, schedule: Q01DX005 (ip), vehicle: distilled water + Tween-80): 92 % of control

COc1ccccc1N=Nc1c(O)n(-c2ccccc2OC)c(=S)n(-c2ccc(C)cc2)c1=O
T/C (endpoint: mean survival time, dose: 25.0 mg/kg/injection, schedule: Q04DX002 (ip), vehicle: saline with Tween-80): 90 % of control | T/C (endpoint: mean survival time, dose: 50.0 mg/kg/injection, schedule: Q04DX002 (ip), vehicle: saline with Tween-80): 90 % of control | T/C [15]: 90 % of control

O=C1CSC(=S)N1/N=C/c1ccccc1
T/C (endpoint: mean survival time, dose: 100.0 mg/kg/injection, schedule: Q04DX002 (ip), vehicle: saline): 103 % of control

N#C/C(=C\c1cc(Cl)cc(Cl)c1O)C(/C(C#N)=C/c1cc(Cl)cc(Cl)c1O)c1ccc2c(c1)OCO2 (stereo unspecified)
T/C [16]: 101 % of control | T/C [4]: 101 % of control | T/C [17]: 94 % of control | T/C [5]: 97 % of control | T/C [18]: 105 % of control | T/C [6]: 103 % of control

CCOc1ccc(N=[N+]([O-])c2ccc(OCC)cc2)cc1
T/C [16]: 90 % of control | T/C [4]: 96 % of control | T/C [17]: 97 % of control | T/C [5]: 98 % of control | T/C [18]: 96 % of control | T/C [6]: 101 % of control

O=C1C=CC(=O)N1c1ccc(O)cc1
T/C (endpoint: mean survival time, dose: 1.25 mg/kg/injection, schedule: Q01DX009 (ip), vehicle: saline with Tween-80): 100 % of control | T/C (endpoint: mean survival time, dose: 2.5 mg/kg/injection, schedule: Q01DX009 (ip), vehicle: saline with Tween-80): 98 % of control | T/C [19]: 93 % of control | T/C (endpoint: mean survival time, dose: 5.0 mg/kg/injection, schedule: Q04DX003 (ip), vehicle: saline with Tween-80): 98 % of control

Nc1nc[nH]c(=O)c1N
T/C [12]: 107 % of control | T/C [13]: 107 % of control | T/C [14]: 102 % of control

Cc1c(N=O)c(C)[n+]([O-])n1O
T/C (endpoint: mean survival time, dose: 50.0 mg/kg/injection, schedule: Q01DX009 (ip), vehicle: Klucel (hydroxypropylcellulose) (HPC)): 89 % of control | T/C (endpoint: mean survival time, dose: 100.0 mg/kg/injection, schedule: Q01DX009 (ip), vehicle: Klucel (hydroxypropylcellulose) (HPC)): 97 % of control | T/C (endpoint: mean survival time, dose: 200.0 mg/kg/injection, schedule: Q01DX009 (ip), vehicle: Klucel (hydroxypropylcellulose) (HPC)): 97 % of control

Nc1cc(Cl)c(N)c(N)n1
T/C [16]: 100 % of control | T/C [17]: 91 % of control

O=[N+]([O-])c1ccc(/C=C/C=C\c2cccc(S(=O)(=O)F)c2)c(Cl)c1
T/C (endpoint: mean survival time, dose: 100.0 mg/kg/injection, schedule: Q01DX009 (ip), vehicle: acetone): 100 % of control | T/C [4]: 102 % of control | T/C (endpoint: mean survival time, dose: 200.0 mg/kg/injection, schedule: Q01DX009 (ip), vehicle: acetone): 104 % of control | T/C [5]: 97 % of control | T/C (endpoint: mean survival time, dose: 400.0 mg/kg/injection, schedule: Q01DX009 (ip), vehicle: acetone): 104 % of control | T/C [6]: 94 % of control

O=C1C=C(CCc2ccccc2)CCC1
T/C [16]: 107 % of control | T/C [17]: 107 % of control | T/C [18]: 108 % of control

C[n+]1ccccc1CCC(=O)Nc1ccccc1
T/C [20]: 103 % of control | T/C [21]: 95 % of control | T/C [16]: 88 % of control

CC1(c2ccc3ccccc3c2)OC(=O)c2ccccc21 (stereo unspecified)
T/C [10]: 111 % of control | T/C [11]: 100 % of control | T/C (endpoint: median survival time, dose: 50.0 mg/kg/injection, schedule: Q04DX003 (ip), vehicle: saline with Tween-80): 111 % of control | T/C (endpoint: median survival time, dose: 100.0 mg/kg/injection, schedule: Q04DX003 (ip), vehicle: saline with Tween-80): 88 % of control

CN=NNc1ccccc1
T/C (endpoint: mean survival time, dose: 75.0 mg/kg/injection, schedule: Q01DX001 (ip), vehicle: saline): 117 % of control | T/C (endpoint: mean survival time, dose: 75.0 mg/kg/injection, schedule: Q04DX003 (ip), vehicle: saline with Tween-80): 122 % of control | T/C [4]: 119 % of control | T/C (endpoint: mean survival time, dose: 150.0 mg/kg/injection, schedule: Q04DX003 (ip), vehicle: saline with Tween-80): 153 % of control | T/C (endpoint: mean survival time, dose: 225.0 mg/kg/injection, schedule: Q04DX003 (ip), vehicle: saline with Tween-80): 86 % of control

O=C1CN(Cc2ccc3c(c2)OCO3)NO1
T/C (endpoint: mean survival time, dose: 6.25 mg/kg/injection, schedule: Q01DX009 (ip), vehicle: saline with Tween-80): 98 % of control and 101 % of control | T/C (endpoint: mean survival time, dose: 12.5 mg/kg/injection, schedule: Q01DX009 (ip), vehicle: saline with Tween-80): 98 % of control | T/C [20]: 102 % of control and 109 % of control | T/C [21]: 113 % of control | T/C [16]: 120 % of control and 104 % of control

CN(C)N=Nc1ccc(Cl)cc1
T/C (endpoint: mean survival time, dose: 79.0 mg/kg/injection, schedule: Q01DX009 (ip), vehicle: Klucel (hydroxypropylcellulose) (HPC)): 111 % of control | T/C (endpoint: mean survival time, dose: 118.0 mg/kg/injection, schedule: Q01DX009 (ip), vehicle: Klucel (hydroxypropylcellulose) (HPC)): 119 % of control

O=C(O)c1cccnc1[N+](=O)[O-]
T/C [21]: 98 % of control | T/C [12]: 93 % of control | T/C [16]: 94 % of control | T/C [13]: 93 % of control | T/C [17]: 96 % of control

Cc1ccc(S(=O)(=O)N=S(C)(C)=O)cc1
T/C [15]: 98 % of control | T/C (endpoint: mean survival time, dose: 200.0 mg/kg/injection, schedule: Q04DX002 (ip), vehicle: saline with Tween-80): 94 % of control | T/C (endpoint: mean survival time, dose: 400.0 mg/kg/injection, schedule: Q04DX002 (ip), vehicle: saline with Tween-80): 94 % of control

O=C(CBr)c1ccccc1
T/C [19]: 97 % of control | T/C (endpoint: mean survival time, dose: 10.0 mg/kg/injection, schedule: Q01DX009 (ip), vehicle: saline with Tween-80): 93 % of control

Nc1nc2c(c(=O)[nH]1)N(CCCCCO)C(CNc1ccc(C(=O)NC(CCC(=O)O)C(=O)O)cc1)CN2 (stereo unspecified)
T/C [7]: 97 % of control | T/C [8]: 103 % of control | T/C [9]: 97 % of control
